Experimental data from patent US20260272925A1, “CDK2 MODULATORS, COMPOSITIONS, AND METHODS OF USE THEREOF” (Type6 Therapeutics, Inc., priority 2023, published 2026).

Molecular target: T1, Cdk2(2-298) (Homo sapiens, UniProt P24941)
T1 construct: Biotinylated N-terminal avi-tagged Cdk2(2-298) or Cdk1(1-297) was immobilized
Assay: Surface Plasmon Resonance (SPR), Biacore 8K, compound interaction with immobilized kinase
Type: binding
Conditions: biotinylated N-terminal avi-tagged protein on Chip SA, single-cycle kinetics (SCK, "S") mode, 1% DMSO, pH 7.5, read-out: Activity rating* (KD)
Description: Surface Plasmon Resonance (SPR) Method Description
Compound interaction was profiled using a Biacore 8K instrument (Cytiva). Biotinylated N-terminal avi-tagged Cdk2(2-298) or Cdk1(1-297) was immobilized on a series S sensor Chip SA at a capture level between 2500 RU and 3000 RU (Cdk2) or 7000 RU (Cdk1) in buffer (25 mM HEPES, 150 mM NaCl, 0.05% Tween20, pH 7.5). A compound dilution plate (8 concentrations, 3-fold dilution) in DMSO was prepared (100× assay concentration). From this plate, compound DMSO stock solution was transferred into buffer, yielding a final DMSO concentration of 1% in assay. The remaining buffer was supplemented with 1% DMSO. Compounds were injected in a series of increasing concentrations in multi-cycle kinetics (MCK, “M”) or single-cycle kinetics (SCK, “S”) mode at a flow rate of 30 μl/min for 120 sec and dissociation was profiled for 180 sec (MCK) or 1800 sec (SCK). Data were analysed using Biacore Insight Evaluation Software (Cytiva).

| Kd | SMILES |
| --- | --- |
| 11 to 100 nM | N[C@H]1CC[C@H](Nc2nccc(-c3cccnc3Oc3cc(Cl)c(NS(=O)(=O)c4cccc5ccccc45)cc3F)n2)CC1 [Compound 416, N-[4-[(1r,4r)[3-[2-[(4-Aminocyclohexyl)amino]pyrimidin-4-yl]pyrid-2-yl]oxy]-6-chloro-3-fluorophenyl]naphthalene-1-sulfonamide] |
| ≤ 10 nM | N[C@H]1CC[C@H](Nc2nccc(-c3cccnc3Oc3cc(Cl)c(NS(=O)(=O)c4ccccc4Cl)cc3F)n2)CC1 [Compound 414, N-[4-[(1r,4r)[3-[2-[(4-Aminocyclohexyl)amino]pyrimidin-4-yl]pyrid-2-yl]oxy]-6-chloro-3-fluorophenyl]2-chlorobenzenesulfonamide] |
| ≤ 10 nM | N[C@H]1CC[C@H](Nc2nccc(-c3cccnc3Oc3ccc(NS(=O)(=O)c4ccccc4Cl)cc3F)n2)CC1 [Compound 410, N-[4-[(1r,4r)[3-[2-[(4-Aminocyclohexyl)amino]pyrimidin-4-yl]pyrid-2-yl]oxy]-3-fluorophenyl]2-chlorobenzenesulfonamide] |
| 11 to 100 nM | N[C@H]1CC[C@H](Nc2nccc(-c3cccnc3Oc3ccc(NS(=O)(=O)c4cccc5ccccc45)cc3F)n2)CC1 [Compound 415, N-[4-[(1r,4r)[3-[2-[(4-Aminocyclohexyl)amino]pyrimidin-4-yl]pyrid-2-yl]oxy]-3-fluorophenyl]naphthalene-1-sulfonamide] |

Continued, molecule first:

| SMILES | Kd |
| --- | --- |
| O=S(=O)(Nc1ccc(Oc2nccnc2-c2ccnc(N[C@H]3CCCNC3)n2)c(F)c1)c1ccccc1Cl [Compound 390, N-[3-Fluoro-4-[[3-[2-[[(3S)-3-piperidinyl]amino]pyrimidin-4-yl]-2-pyrazinyl]oxy]phenyl]2-chlorobenzenesulfonamide] | 11 to 100 nM |
| N[C@H]1CC[C@H](Nc2nccc(-c3nccnc3Oc3ccc(NS(=O)(=O)c4ccccc4Cl)cc3F)n2)CC1 [Compound 402, N-[4-[(1r,4r)[3-[2-[(4-Aminocyclohexyl)amino]pyrimidin-4-yl]pyrazin-2-yl]oxy]-3-fluorophenyl]2-chlorobenzenesulfonamide] | 100 to 1000 nM |
| N[C@H]1CC[C@H](Nc2nccc(-c3cccnc3Oc3ccc(NS(=O)(=O)c4ccccc4Cl)cc3)n2)CC1 [Compound 411, N-[4-[(1r,4r)[3-[2-[(4-Aminocyclohexyl)amino]pyrimidin-4-yl]-2-pyridyl]oxy]phenyl]2-chlorobenzenesulfonamide] | 11 to 100 nM |
| N[C@H]1CC[C@H](Nc2nccc(-c3scnc3Oc3ccc(NS(=O)(=O)c4ccccc4Cl)cc3F)n2)CC1 [Compound 403, N-[4-[(1r,4r)[5-[2-[(4-Aminocyclohexyl)amino]pyrimidin-4-yl]thiazol-4-yl]oxy]-3-fluorophenyl]2-chlorobenzenesulfonamide] | ≤ 10 nM |
| O=S(=O)(Nc1ccc(Oc2ncsc2-c2ccnc(N[C@H]3CCCNC3)n2)c(F)c1)c1ccccc1Cl [Compound 391, N-[3-Fluoro-4-[[5-[2-[[(3S)-3-piperidinyl]amino]pyrimidin-4-yl]-4-thiazolyl]oxy]phenyl]2-chlorobenzenesulfonamide] | ≤ 10 nM |
| O=S(=O)(Nc1ccc(Oc2ncccc2-c2ccnc(N[C@H]3CCCNC3)n2)cc1)c1ccccc1Cl [Compound 412, N—((S)-4-((3-(2-(Piperidin-3-ylamino)pyrimidin-4-yl)pyridin-2-yl)oxy)phenyl) 2-chlorobenzenesulfonamide] | 11 to 100 nM |
| N[C@H]1CC[C@H](Nc2nccc(-c3cccnc3Oc3ccc(NS(=O)(=O)c4ccc5ccccc5c4)cc3F)n2)CC1 [Compound 417, N-[4-[(1r,4r)[3-[2-[(4-Aminocyclohexyl)amino]pyrimidin-4-yl]pyrid-2-yl]oxy]-3-fluorophenyl]naphthalene-2-sulfonamide] | 100 to 1000 nM |
| O=S(=O)(Nc1ccc(Oc2ncccc2-c2ccnc(N[C@H]3CCCNC3)n2)c(F)c1)c1ccccc1Cl [Compound 413, N—((S)-4-((3-(2-(piperidin-3-ylamino)pyrimidin-4-yl)pyridin-2-yl)oxy)-3-fluorophenyl) 2-chlorobenzenesulfonamide] | ≤ 10 nM |
